Results as given in patent US20260207602A1, “EGFR INHIBITORS” (Blueprint Medicines Corporation, priority 2022, published 2026).

Legend:
EGFR L858R = biological target: T1, EGFR L858R (Homo sapiens, UniProt P00533, L858R); assay: Biochemical EGFR inhibition assay (Caliper mobility shift), EGFR L858R; conditions: biochemical Caliper mobility shift assay, EGFR L858R enzyme; read-out: Enz EGFR L858R IC50
T1 construct: purchased SignalChem E10-122BG
Procedure, shortened: (§1)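 Apparent IC50 values come from Caliper electrophoretic separation of phosphorylated and unphosphorylated 5-FAM peptide (2.5 μM). ATP was either 1.0 mM or at Km; HEPES pH 7.5 buffer with MgCl2, DTT, 1% DMSO. Reactions ran at 25 °C until 10–20% phosphorylated, then EDTA quench.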

[1] = biological target: intracellular phosphorylation of EGFR (Tyr1068) in PC-9 cells (Homo sapiens, UniProt P00533, DEL746-750); assay: PC-9 pEGFR AlphaLISA assay; assay type: cell-based; conditions: 4 hours incubation, read-out: Phos EGFR PC9 IC50
intracellular phosphorylation of EGFR (Tyr1068) in PC-9 cells, sequence (P00533 with tags, fused parts or gaps DEL746-750): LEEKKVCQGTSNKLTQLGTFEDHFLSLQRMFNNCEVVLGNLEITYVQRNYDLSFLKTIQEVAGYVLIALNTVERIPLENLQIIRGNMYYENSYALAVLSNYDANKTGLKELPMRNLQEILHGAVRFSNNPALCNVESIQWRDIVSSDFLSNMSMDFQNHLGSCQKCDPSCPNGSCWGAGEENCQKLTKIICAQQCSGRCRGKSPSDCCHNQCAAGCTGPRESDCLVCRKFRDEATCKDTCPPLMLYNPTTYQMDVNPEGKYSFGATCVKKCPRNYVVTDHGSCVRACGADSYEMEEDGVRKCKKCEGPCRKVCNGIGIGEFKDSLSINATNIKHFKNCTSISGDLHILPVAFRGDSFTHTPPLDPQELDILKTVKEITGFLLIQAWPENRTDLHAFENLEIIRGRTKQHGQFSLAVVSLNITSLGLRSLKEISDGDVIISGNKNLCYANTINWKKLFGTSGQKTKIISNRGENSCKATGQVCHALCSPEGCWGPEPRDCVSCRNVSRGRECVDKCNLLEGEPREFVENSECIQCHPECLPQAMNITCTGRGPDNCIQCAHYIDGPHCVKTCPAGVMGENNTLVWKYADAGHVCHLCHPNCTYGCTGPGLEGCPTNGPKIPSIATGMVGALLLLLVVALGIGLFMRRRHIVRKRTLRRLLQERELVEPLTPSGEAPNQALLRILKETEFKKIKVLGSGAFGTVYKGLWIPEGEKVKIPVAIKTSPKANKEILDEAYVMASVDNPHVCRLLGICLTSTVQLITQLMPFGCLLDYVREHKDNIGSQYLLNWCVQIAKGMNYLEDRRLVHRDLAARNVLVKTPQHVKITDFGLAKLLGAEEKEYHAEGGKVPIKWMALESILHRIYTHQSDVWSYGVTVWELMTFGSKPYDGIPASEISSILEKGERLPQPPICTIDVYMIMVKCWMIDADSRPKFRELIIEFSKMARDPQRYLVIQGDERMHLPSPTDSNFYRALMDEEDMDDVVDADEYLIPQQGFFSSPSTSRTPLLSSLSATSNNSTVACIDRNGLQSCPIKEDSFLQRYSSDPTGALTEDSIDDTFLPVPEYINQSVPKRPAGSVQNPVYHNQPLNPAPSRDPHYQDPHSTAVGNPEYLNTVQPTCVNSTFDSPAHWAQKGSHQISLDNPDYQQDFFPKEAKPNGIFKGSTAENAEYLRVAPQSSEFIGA
Procedure, shortened: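 PC-9 cells (EGFR del746-750) in phenol-free DMEM/10% FBS, adhered overnight, then exposed to 10-point 4-fold compound dilutions for 4 h at 37 °C. Lysates assayed for pEGFR Tyr1068 by AlphaLISA SureFire Ultra; IC50 from percent pEGFR inhibition vs log concentration.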

EGFR (d746-750) = biological target: T2, EGFR (d746-750) (Homo sapiens, UniProt P00533, DEL746-750); assay: Biochemical EGFR inhibition assay (Caliper mobility shift), EGFR (d746-750); conditions: biochemical Caliper mobility shift assay, EGFR Exon 19-del enzyme; read-out: Enz EGFR Exon 19-del IC50
T2 construct: purchased SignalChem E10-122JG
T2 sequence (P00533 with tags, fused parts or gaps DEL746-750 limits assumed): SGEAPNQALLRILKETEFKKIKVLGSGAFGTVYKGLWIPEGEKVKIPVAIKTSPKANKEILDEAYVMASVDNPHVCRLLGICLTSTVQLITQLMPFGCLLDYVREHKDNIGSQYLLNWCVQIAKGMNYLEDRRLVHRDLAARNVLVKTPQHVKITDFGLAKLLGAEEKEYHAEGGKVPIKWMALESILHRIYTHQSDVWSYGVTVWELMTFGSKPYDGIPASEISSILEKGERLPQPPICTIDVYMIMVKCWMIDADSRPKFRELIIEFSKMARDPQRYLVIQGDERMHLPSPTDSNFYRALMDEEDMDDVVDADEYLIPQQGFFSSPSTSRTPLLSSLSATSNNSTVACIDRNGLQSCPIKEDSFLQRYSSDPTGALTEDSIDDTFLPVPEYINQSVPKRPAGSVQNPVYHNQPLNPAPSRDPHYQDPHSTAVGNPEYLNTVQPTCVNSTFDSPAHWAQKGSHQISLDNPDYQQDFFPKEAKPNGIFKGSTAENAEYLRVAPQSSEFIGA
Procedure, shortened: as §1

T1 sequence (P00533 25-1210 L858R): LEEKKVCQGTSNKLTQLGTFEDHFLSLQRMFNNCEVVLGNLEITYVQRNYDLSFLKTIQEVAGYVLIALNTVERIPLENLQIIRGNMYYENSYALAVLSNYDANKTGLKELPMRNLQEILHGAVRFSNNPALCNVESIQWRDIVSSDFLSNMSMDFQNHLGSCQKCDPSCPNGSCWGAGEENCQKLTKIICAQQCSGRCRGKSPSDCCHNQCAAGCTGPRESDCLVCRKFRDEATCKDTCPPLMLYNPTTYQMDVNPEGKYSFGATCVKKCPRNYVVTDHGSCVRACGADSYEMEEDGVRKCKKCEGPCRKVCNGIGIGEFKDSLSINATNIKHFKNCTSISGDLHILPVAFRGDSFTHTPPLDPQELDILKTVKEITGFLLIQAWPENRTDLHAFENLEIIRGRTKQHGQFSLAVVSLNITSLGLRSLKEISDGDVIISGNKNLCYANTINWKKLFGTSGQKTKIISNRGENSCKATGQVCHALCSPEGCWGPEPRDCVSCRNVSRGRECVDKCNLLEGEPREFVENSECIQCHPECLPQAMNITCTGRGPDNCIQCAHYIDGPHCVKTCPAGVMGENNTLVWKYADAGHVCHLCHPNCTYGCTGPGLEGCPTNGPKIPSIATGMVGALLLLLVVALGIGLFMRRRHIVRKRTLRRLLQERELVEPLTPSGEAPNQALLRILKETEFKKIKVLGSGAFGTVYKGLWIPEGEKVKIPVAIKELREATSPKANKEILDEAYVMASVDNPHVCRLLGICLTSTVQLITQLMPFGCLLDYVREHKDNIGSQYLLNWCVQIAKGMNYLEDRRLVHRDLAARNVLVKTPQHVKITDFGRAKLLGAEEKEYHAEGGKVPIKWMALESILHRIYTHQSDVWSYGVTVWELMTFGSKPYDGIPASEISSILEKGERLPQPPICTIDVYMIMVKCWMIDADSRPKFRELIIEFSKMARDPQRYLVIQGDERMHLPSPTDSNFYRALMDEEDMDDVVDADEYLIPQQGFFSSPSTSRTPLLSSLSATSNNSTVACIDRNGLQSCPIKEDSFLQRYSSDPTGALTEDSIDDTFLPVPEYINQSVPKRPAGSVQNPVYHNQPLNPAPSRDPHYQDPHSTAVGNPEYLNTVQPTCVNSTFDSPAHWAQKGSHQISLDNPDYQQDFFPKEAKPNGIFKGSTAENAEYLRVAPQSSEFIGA

IC50 (EGFR L858R) [µM] | IC50 [1] [µM] | IC50 (EGFR (d746-750)) [µM] | Compound
0.0101 to 0.05 | 0.0101 to 0.05 | ≤ 0.01 | COCCN1CCC(Oc2cc(-c3nn(C)cc3OC)cc3ncnc(Nc4ccc5ncsc5c4)c23)CC1 [Example 308, N-(7-(4-methoxy-1-methyl-1H-pyrazol-3-yl)-5-((1-(2-methoxyethyl)piperidin-4-yl)oxy)quinazolin-4-yl)benzo[d]thiazol-6-amine]
≤ 0.01 | 0.0101 to 0.05 | ≤ 0.01 | CN1C[C@H](Oc2cc(-c3cnn(C)c3)cc3ncnc(Nc4ccc5ncsc5c4)c23)[C@@H](F)C1 [Example 383, N-(5-(((3S,4S)-4-fluoro-1-methylpyrrolidin-3-yl)oxy)-7-(1-methyl-1H-pyrazol-4-yl)quinazolin-4-yl)benzo[d]thiazol-6-amine]
0.0101 to 0.05 | 0.0101 to 0.05 | ≤ 0.01 | C[C@@H](Oc1cc(N2CCN(C)[C@@H]3C[C@@H]32)cc2ncnc(Nc3ccc4ncsc4c3)c12)C1COC1 (single isomer, unassigned) [Example 299]
0.0101 to 0.05 | 0.0101 to 0.05 | ≤ 0.01 | CO[C@@H]1CCNC[C@H]1Oc1cc(-c2cnn(C)c2)cc2ncnc(Nc3ccc4ncsc4c3)c12 (single isomer, unassigned) [Example A38]
≤ 0.01 | ≤ 0.01 | ≤ 0.01 | COc1nn(C)cc1-c1cc(O[C@@H](C)C(=O)N(C)C)c2c(Nc3ccc4ncsc4c3F)ncnc2c1 (single isomer, unassigned) [Example 287]
≤ 0.01 | ≤ 0.01 | ≤ 0.01 | CN(C)C(=O)COc1cc(-c2cnn(C)c2)cc2ncnc(Nc3ccc4ncsc4c3F)c12 [Example 274, 2-((4-((7-fluorobenzo[d]thiazol-6-yl)amino)-7-(1-methyl-1H-pyrazol-4-yl)quinazolin-5-yl)oxy)-N,N-dimethylacetamide]

The remaining lines, values behind:

Compound | IC50 (EGFR L858R) [µM] | IC50 [1] [µM] | IC50 (EGFR (d746-750)) [µM]
CC(C)N1CCC(Oc2cc(-c3cnn(C)c3)cc3ncnc(Nc4ccc5ncsc5c4)c23)C1=O (racemic) [Example 62, (rac)-3-((4-(benzo[d]thiazol-6-ylamino)-7-(1-methyl-1H-pyrazol-4-yl)quinazolin-5-yl)oxy)-1-isopropylpyrrolidin-2-one] | ≤ 0.01 | ≤ 0.01 | ≤ 0.01
COc1cc2c(Nc3ccc4ncsc4c3)ncnc2cc1-c1cnn(C)c1 [Example 263, N-(6-methoxy-7-(1-methyl-1H-pyrazol-4-yl)quinazolin-4-yl)benzo[d]thiazol-6-amine] | ≤ 0.01 | ≤ 0.01 | ≤ 0.01
C[C@@H](Oc1cc(-c2cnn(C)c2)cc2ncnc(Nc3ccc4ncsc4c3)c12)[C@H](C)N(C)C (single isomer, unassigned) [Example 144] | 0.0101 to 0.05 | 0.0101 to 0.05 | ≤ 0.01
C[C@@H](CN(C)C)Oc1cc(-c2cnn(C)c2)cc2ncnc(Nc3ccc4ncsc4c3)c12 (single isomer, unassigned) [Example 160, (R)—N-(5-((1-(dimethylamino)propan-2-yl)oxy)-7-(1-methyl-1H-pyrazol-4-yl)quinazolin-4-yl)benzo[d]thiazol-6-amine or (S)—N-(5-((1-(dimethylamino)propan-2-yl)oxy)-7-(1-methyl-1H-pyrazol-4-yl)quinazolin-4-yl)benzo[d]thiazol-6-amine] | ≤ 0.01 | ≤ 0.01 | ≤ 0.01
C[C@@H](Oc1cc(-c2cn(C)n(C(F)F)c2=O)cc2ncnc(Nc3ccc4ncsc4c3)c12)C1COC1 (single isomer, unassigned) [Example 174] | ≤ 0.01 | ≤ 0.01 | ≤ 0.01
CC(C)Oc1cc(O[C@H](C)C2COC2)c2c(Nc3ccc4ncsc4c3)ncnc2c1 [Example 125, (R)-N-(7-isopropoxy-5-(1-(oxetan-3-yl)ethoxy)quinazolin-4-yl)benzo[d]thiazol-6-amine] | ≤ 0.01 | 0.0101 to 0.05 | ≤ 0.01
